Test results taken from the RepoRT retention time repository.

Test: Agilent ZORBAX 300 SB-C18, 150 × 1 mm, 3.5 µm; A: water + 0.01% heptafluorobutyric acid; B: acetonitrile + 0.01% heptafluorobutyric acid; gradient (min/%B) 0/0 100/90
Conditions: stereoisomer not certain

Row | Structure (SMILES) | LC retention time [min]
1 | Cc1ccc(CN2CCN(N=Cc3ccco3)CC2)cc1 | 9.55
2 | CC(=O)N(C)c1ccc(O)cc1 | 7.68
3 | O=C(O)Cc1c(C(=O)O)[nH]c2cc(C(=O)O)ccc12 | 7.47
4 | CCNC1(c2cccs2)CCCCC1 | 9.19
5 | Cc1ccc2nc[nH]c2c1 | 7.74
6 | Cc1cccc(C)c1NC1=NCCCS1 | 9.58
7 | CC(C)NCCN(CCNC(C)C)CCNC(C)C | 7.84
8 | CCCCCCCCCCC(N)=O | 15.3
9 | c1ccc(C2CN3CCSC3=N2)cc1 (stereo unspecified) | 8.73
10 | c1csc(-c2cnc3ccccc3n2)c1 | 14.3
11 | CC1=Nc2ccccc2Sc2ccccc21 | 14.5
12 | CC(N)(CO)CO | 3.29
13 | CNCCOC | 4.63
14 | Cc1[nH]c2ccccc2c1C=NNC(N)=S | 9.71
15 | NC1C(O)OC(CO)C(O)C1O (stereo unspecified) | 2.77
16 | CC(=O)NC1CCC2C3CC=C4CC(OC(C)=O)CCC4(C)C3CCC12C (stereo unspecified) | 16.7
17 | CC(=O)Oc1ccccc1C(=O)NC(C)(C)C | 11.2
18 | COCCc1ccc(OCC(O)CNC(C)C)cc1 (stereo unspecified) | 9.27
19 | Cc1ccc(-n2c(C)cc(C=CC(=O)O)c2C)cc1 | 14.4
20 | COc1ccc(CCN2C(=O)C(C)C(Cc3ccc(C)cc3)C2=O)cc1OC (stereo unspecified) | 15.9
21 | O=C1CCNC2CCCCC12 (stereo unspecified) | 6.79
22 | CN(C)C(=O)Oc1cc(OC(=O)N(C)C)cc(C(O)CNC(C)(C)C)c1 (stereo unspecified) | 9.59
23 | Cc1c(O)c(=O)ccn1C | 6.47

Row | Structure (SMILES) | LC retention time [min]
24 | COCCNC(=O)Cn1c(=O)n(C)c2ccccc21 | 8.47
25 | CCCCN | 6.72
26 | Cc1cc2[nH]c(=O)[nH]c2cc1N | 6.14
27 | COc1cccc2ccc(C)nc12 | 7.77
28 | COCc1cc(=O)n2[nH]c(NC(C)=O)nc2n1 | 6.11
29 | Cc1ccc(CN2C(=O)CCC2=O)o1 | 9.52
30 | NCCCOc1ccccc1 | 8.2
31 | CSc1nnc(C)c(C)n1 | 8.89
32 | CCOC1COCC1N (stereo unspecified) | 6.48
33 | CN(C)CCO | 3.24
34 | CCc1ccccn1 | 6.68
35 | NCCCP(=O)(O)O | 1.3
36 | Cc1[nH]c(C)c(C(=O)c2ccccc2)c1C | 12.5
37 | C=CCN(C)CC=C | 6.98
38 | Cc1ccc(NC(=S)NC2CC(C)(C)NC(C)(C)C2)c(C)c1 | 9.61
39 | CNC(C)C(=O)c1ccccc1 (stereo unspecified) | 8.4
40 | Cc1cc(C)c(NC(=O)c2ccncc2)c(C)c1 | 10.4
41 | CCOC(=O)c1[nH]c(C)c(C(=O)OCc2ccccc2)c1C | 15.8
42 | c1cncc(CN=Nc2nc(N3CCCCC3)nc(N3CCCCC3)n2)c1 | 11.5
43 | COc1ccc(C2N(c3ccccc3)CCN2c2ccccc2)cc1 | 18.6
44 | Nc1cccc(N)n1 | 6.11
45 | CCCNCCN | 7
46 | CCOC(=O)C(C(C)=NNC(=O)c1ccc(NC(C)=O)cc1)C(C)C (stereo unspecified) | 10.8

Row | Structure (SMILES) | LC retention time [min]
47 | CCN(CC)CCN(CC)CC | 7.19
48 | CC(C)CC(N)C(N)=O (stereo unspecified) | 6.71
49 | CC(=O)NC(NC(C)=O)c1ccncc1 | 5.53
50 | Cc1ccc2[nH]c(=O)c(=O)[nH]c2c1C | 8.13
51 | C[N+](C)(C)CCOC(=O)c1ccccc1 | 8.36
52 | C1CCNCC1 | 6.6
53 | CC(C)C(N)C(=O)O (stereo unspecified) | 2.86
54 | Cc1cc(C)ncn1 | 7.51
55 | Cc1cc(=O)[nH]c(N)n1 | 5.97
56 | Cc1ccc2ccc[n+](C)c2c1 | 7.88
57 | CN1CCNCC1 | 6.48
58 | C[N+](C)(C)CC(=O)O | 1.67
59 | c1cnc2nc[nH]c2c1 | 6.03
60 | S=C1NCN(C2CCCCC2)CN1 | 8.07
61 | CC(=O)C(=C1NC(C)(C)Cc2cc(C)c(C)cc21)c1ccccc1 | 17.6
62 | Nc1ccc(C(=O)O)cc1N | 5.93
63 | COc1ccc(C2NNc3nn(-c4ccccc4OC)nc32)cc1 (stereo unspecified) | 13.6
64 | O=C1CCCN1CP(=O)(O)CCc1ccccc1 | 7.26
65 | CNc1ccncc1 | 6.54
66 | C=CCN1CCC23CCCCC2C1Cc1ccc(O)cc13 (stereo unspecified) | 9.82
67 | CC1(C)CC(NC(=O)NC2CCCCC2)CC(C)(C)N1 | 8.78

Second part, the compound after the results:

Row | LC retention time [min] | Structure (SMILES)
68 | 7.98 | Nc1ccc(NC(=O)c2cccc(C(=O)Nc3ccc(N)cc3)c2)cc1
69 | 15.7 | O=C(NCCc1ccco1)c1cccc2c1oc1ccccc12
70 | 18.4 | CCc1cccc2ccn(Cc3ccccc3)c12
71 | 9.76 | CCn1c2ccccc2c2cc(N)ccc21
72 | 13.1 | COC(=O)c1ccc(Cn2c(=O)n(C)c(=O)c3ccccc32)cc1
73 | 10.7 | CC(C)=NNc1nccc2ccccc12
74 | 9.41 | CN(C)c1ccc(C=NNC(=O)c2cccc(N)c2)cc1
75 | 14.4 | O=C(C(=O)c1cccs1)c1ccccc1
76 | 11.9 | Cc1ccc(C(=O)NC(=Cc2ccc(C(C)C)cc2)C(=O)NCc2cccnc2)cc1
77 | 7.8 | CC(=O)NC(Cc1c[nH]c2ccccc12)C(N)=O (stereo unspecified)
78 | 13.4 | COc1ccc(-c2oc3ccccc3c(=O)c2OC)cc1OC
79 | 10.4 | CC(=O)Nc1coc2ccccc12
80 | 12.2 | O=C(C=Cc1cccc(O)c1)c1ccccc1O
81 | 13.5 | C#CC(C)(CC)NC(=O)C(=Cc1ccccc1)NC(=O)c1ccccc1 (stereo unspecified)
82 | 16.8 | Cc1cccc(NC(=O)C(Cc2c[nH]c3ccccc23)NC(=O)C(c2ccccc2)c2ccccc2)c1 (stereo unspecified)
83 | 9.3 | Nc1ccc2c(c1)nc(-c1ccccc1)c1cc(N)ccc12
84 | 16.3 | CCc1ccc(NCCC(=O)c2ccc3c(c2)Cc2ccccc2-3)cc1
85 | 12.1 | Cc1ccc(C)n1-c1ccccc1C(=O)O
86 | 9.59 | CCCc1c(O)c2ccccc2[nH]c1=O
87 | 10.5 | O=c1nc(N2CCOCC2)nc(N(c2ccccc2)c2ccccc2)[nH]1
88 | 11.8 | O=C(NCCc1c[nH]c2ccccc12)c1c[nH]c2ccccc12
89 | 12.5 | CC(=O)c1c(C(C)=O)c(C)n(CCc2c[nH]c3ccccc23)c1C
90 | 15.7 | CC=CC=CC(=O)Nc1ccc(C=CC(=O)c2ccccc2)cc1
91 | 12.6 | Nc1cccc2c1C(=O)c1cccc(N)c1C2=O
92 | 14.4 | S=C(NCc1ccccc1)Nc1cccc2ccccc12
93 | 10.4 | Nc1cccc(-c2cc3ccccc3oc2=O)c1
94 | 9.12 | O=C(NCc1n[nH]c(=O)c2ccccc12)C(=Cc1ccco1)NC(=O)c1ccco1
95 | 12.1 | COc1cccc2c1NC(CCc1ccccc1N)CC2 (stereo unspecified)
96 | 9.58 | O=C1NC(Cc2c[nH]c3ccccc23)C(=O)NC1Cc1c[nH]c2ccccc12 (stereo unspecified)
